{"source": "paper PMC4026281", "about": "(Journal of neurochemistry, 2012)", "key": {"[1]": {"test_system": "nAChRs on SuSC GABAergic terminals (crude synaptosomes)", "type": "biochemical, mouse"}, "α6β2* and α3β2* nAChR": {"test_system": "α6β2* and α3β2* nAChR", "conditions": "cited from earlier work"}, "nAChRs in SuSC membranes": {"test_system": "nAChRs in SuSC membranes", "type": "binding, mouse (C57BL/6)"}, "[2]": {"target": "α-CtxMII-sensitive nAChR, SuSC crude synaptosomes (Mus musculus, UniProt Q8R4G9+Q9ERK7)", "sequence (Q8R4G9 whole entry, looked up)": "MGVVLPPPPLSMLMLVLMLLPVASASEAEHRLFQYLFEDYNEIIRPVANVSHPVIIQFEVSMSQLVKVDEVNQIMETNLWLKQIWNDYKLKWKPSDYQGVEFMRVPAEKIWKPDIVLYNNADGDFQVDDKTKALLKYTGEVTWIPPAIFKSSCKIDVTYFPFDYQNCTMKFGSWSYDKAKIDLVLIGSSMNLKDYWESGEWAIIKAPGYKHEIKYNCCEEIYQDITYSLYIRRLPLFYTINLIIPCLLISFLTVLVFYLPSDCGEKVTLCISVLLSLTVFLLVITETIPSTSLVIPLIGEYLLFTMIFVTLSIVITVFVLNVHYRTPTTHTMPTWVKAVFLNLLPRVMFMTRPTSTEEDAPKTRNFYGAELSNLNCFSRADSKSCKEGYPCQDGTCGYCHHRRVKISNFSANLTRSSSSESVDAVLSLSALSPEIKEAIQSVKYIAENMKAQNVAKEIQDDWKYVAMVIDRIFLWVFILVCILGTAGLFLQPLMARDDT", "sequence (Q9ERK7 whole entry, looked up)": "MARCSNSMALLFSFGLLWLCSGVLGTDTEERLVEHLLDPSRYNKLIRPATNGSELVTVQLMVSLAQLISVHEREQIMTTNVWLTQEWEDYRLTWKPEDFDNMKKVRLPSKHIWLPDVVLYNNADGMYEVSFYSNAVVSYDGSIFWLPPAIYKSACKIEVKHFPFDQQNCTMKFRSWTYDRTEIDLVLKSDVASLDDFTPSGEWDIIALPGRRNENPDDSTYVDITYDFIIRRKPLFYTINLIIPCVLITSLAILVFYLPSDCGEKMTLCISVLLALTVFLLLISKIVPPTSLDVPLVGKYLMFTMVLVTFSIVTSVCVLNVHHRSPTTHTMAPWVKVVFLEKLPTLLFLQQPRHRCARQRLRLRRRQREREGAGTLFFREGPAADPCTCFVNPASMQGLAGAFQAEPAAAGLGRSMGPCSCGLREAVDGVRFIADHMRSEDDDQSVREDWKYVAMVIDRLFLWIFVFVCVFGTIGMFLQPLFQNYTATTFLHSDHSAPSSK", "type": "biochemical"}, "[3]": {"test_system": "α-CtxMII-sensitive nAChR, striatum", "conditions": "cited from earlier work"}, "rat α3β2 receptors": {"test_system": "rat α3β2 receptors", "conditions": "cited from earlier work"}, "[4]": {"test_system": "nAChRs in SC core membranes", "type": "binding, mouse (C57BL/6)"}, "SuSC crude synaptosomes": {"test_system": "SuSC crude synaptosomes", "type": "biochemical, mouse", "conditions": "n = 5"}, "[5]": {"test_system": "α6β2*-nAChR, crude striatal synaptosomes", "type": "biochemical, mouse"}, "[6]": {"test_system": "nAChRs, SuSC crude synaptosomes of nAChR subunit null mutant mice", "type": "biochemical, mouse"}, "nAChR, SuSC": {"test_system": "nAChR, SuSC", "conditions": "rat, in vivo; cited from earlier work"}, "α4β2* nAChR": {"test_system": "α4β2* nAChR", "conditions": "cited from earlier work"}}, "note": "Values joined by “and” are separate entries in the source; they are usually repeats but may differ in a detail not shown here. Identical values can stand only once. “Also recorded” adds a separate entry of the source."}
{"molecule": "[Cd]", "note": "[cadmium]", "values": [{"measurement": "block of ACh-stimulated [^3H]-GABA release by cadmium", "setting": "[1]", "result": "94 ± 1", "unit": "%"}, {"measurement": "effect on ACh-evoked [^3H]-GABA release (abstract)", "setting": "[1]", "result": "blocked"}]}
{"molecule": "CN1[C@@H]2CC[C@H]1C[C@@H](OC(=O)C(CO)c1ccccc1)C2", "note": "(stereo partly shown) [atropine]", "values": [{"measurement": "effect of atropine on ACh-stimulated [^3H]-GABA release", "setting": "[1]", "result": "no effect"}]}
{"molecule": "α-conotoxin MII [α-CtxMII]", "values": [{"measurement": "affinity for α6β2* and α3β2* nAChR subtypes", "setting": "α6β2* and α3β2* nAChR", "result": "high affinity"}, {"measurement": "subtypes inhibited by the α-conotoxin", "setting": "α6β2* and α3β2* nAChR", "result": "inhibits both α3β2*- and α6β2*-nAChR"}, {"measurement": "concentration at which maximal inhibition of [^3H]-GABA release was achieved", "setting": "[1]", "result": 30, "unit": "nM"}, {"measurement": "effect of 100nM α-CtxMII on response to ACh", "setting": "[1]", "result": "reduced the response seen by stimulation with ACh, but did not eliminate it"}, {"measurement": "nAChR-mediated SuSC [^3H]-GABA release inhibited by α-conotoxinMII (abstract)", "setting": "[1]", "result": "Approximately 50%"}, {"measurement": "α-CtxMII sensitive fraction of total [^3H]-GABA release", "setting": "[1]", "result": "58 ± 7", "unit": "%"}, {"measurement": "IC50", "setting": "[1]; read-out: IC50, inhibition of ACh-stimulated [^3H]-GABA release", "result": 1.05, "unit": "nM"}, {"measurement": "specific [^125I]epibatidine binding sensitive to inhibition by α-CtxMII", "setting": "nAChRs in SuSC membranes; 0.0002 µM", "result": "40 +/- 5% and 40.2 ± 5.2%"}, {"measurement": "IC50", "setting": "nAChRs in SuSC membranes; read-out: IC50 for the α-CtxMII-resistant sites", "result": "> 1000", "unit": "nM"}, {"measurement": "lag period during which no recovery was observed", "setting": "[2]", "result": "approximately 5 min"}, {"measurement": "functional recovery of ACh-evoked [^3H]-GABA release, of control", "setting": "[2]; n = 3-4", "result": "91 ± 18", "unit": "%"}, {"measurement": "t1/2 for recovery from α-CtxMII inhibition", "setting": "[2]; n = 3-4", "result": "5.2 min and ~5 min"}, {"measurement": "t1/2 of recovery from α-CtxMII inhibition, [^3H]-DA release", "setting": "[3]", "result": "~26", "unit": "min"}, {"measurement": "t1/2 of recovery from α-CtxMII inhibition, rat α3β2 receptors", "setting": "rat α3β2 receptors", "result": "approximately 4 minutes"}, {"measurement": "time by which full recovery was observed, rat α3β2 receptors", "setting": "rat α3β2 receptors", "result": "≤ 26", "unit": "min"}, {"measurement": "inhibition of [^125I]-epibatidine binding", "setting": "[4]", "result": "not inhibited by α-CtxMII at concentrations below 1 μM"}, {"measurement": "K^+-evoked [^3H]-GABA release in the presence of α-CtxMII", "setting": "SuSC crude synaptosomes", "result": "14.1 ± 2.7"}, {"measurement": "inhibition of ACh-stimulated [^3H]-dopamine release", "setting": "[5]", "result": "41.2 ± 2.8", "unit": "%"}, {"measurement": "α-CtxMII sensitive [^3H]-GABA release after β3 subunit gene deletion", "setting": "[6]", "result": "unaffected"}, {"measurement": "α-CtxMII-sensitive [^3H]-GABA release after deletion of the α6 subunit", "setting": "[6]", "result": "no appreciable impact"}, {"measurement": "[^3H]-GABA release in α6-null mutant mice", "setting": "[6]; n = 4", "result": "indistinguishable from the same measures in wild-type mice"}]}
{"molecule": "Nc1ncnc2c1ncn2[C@@H]1O[C@H](COP(=O)(O)OP(=O)(O)OP(=O)(O)O)[C@H]2OC3(O[C@H]21)C([N+](=O)[O-])=CC(=[N+]([O-])[O-])C=C3[N+](=O)[O-]", "note": "(stereo partly shown) [TNP-ATP]", "values": [{"measurement": "effect of TNP-ATP on ACh-stimulated [^3H]-GABA release", "setting": "[1]; 10 μM, 4 min, n=3", "result": "no effect"}]}
{"molecule": "N#Cc1cc2c(cc1[N+](=O)[O-])=NC(=O)C(=O)N=2", "note": "[CNQX, 6-Cyano-7-nitroquinoxaline-2,3-dione]", "values": [{"measurement": "effect of CNQX on ACh-stimulated [^3H]-GABA release", "setting": "[1]; 100 μM, 5 min, n=4", "result": "no effect"}]}
{"molecule": "CC(=O)OCC[N+](C)(C)C", "note": "[ACh, Acetylcholine]", "values": [{"measurement": "loss of ACh-evoked [^3H]-GABA release in the absence of external calcium", "setting": "[1]", "result": "94 ± 3", "unit": "%"}, {"measurement": "maximal ACh-stimulated [^3H]-GABA release, α-CtxMII-resistant component", "setting": "[1]", "result": "1.00 ± 0.20", "unit": "× baseline"}, {"measurement": "maximal ACh-stimulated [^3H]-GABA release, α-CtxMII-sensitive component", "setting": "[1]", "result": "0.71 ± 0.08", "unit": "× baseline"}, {"measurement": "maximal [^3H]-GABA release, high sensitivity component", "setting": "[1]", "result": "0.68 ± 0.19"}, {"measurement": "maximal [^3H]-GABA release, low sensitivity component", "setting": "[1]", "result": "1.47 ± 0.21"}, {"measurement": "share of ACh-elicited [^3H]-GABA release due to α4β2*-type receptor", "setting": "[1]", "result": "~65", "unit": "%"}, {"measurement": "ACh-stimulated [^3H]-GABA release in β2^-/- mice", "setting": "[6]", "result": "entirely β2 subunit-dependent; also recorded: completely absent"}, {"measurement": "ACh-stimulated [^3H]-GABA release remaining in α4^-/- mice, of WT activity", "setting": "[6]", "result": "9.7 ± 1.1 % of WT activity remaining"}, {"measurement": "decrease of total function by α4 subunit deletion", "setting": "[6]", "result": "> 90", "unit": "%"}]}
{"molecule": "CNC1(C)C2CCC(C2)C1(C)C", "note": "(stereo not shown) [Mecamylamine, mecamylamine]", "values": [{"measurement": "effect on ACh-evoked [^3H]-GABA release (abstract)", "setting": "[1]", "result": "blocked"}, {"measurement": "effect of mecamylamine on ACh-stimulated [^3H]-GABA release", "setting": "[1]; 10 μM, 1 min, n=3", "result": "completely eliminated ACh-stimulated release of [^3H]-GABA"}]}
{"molecule": "CN1[C@@H](CC(=O)c2ccccc2)CCC[C@H]1C[C@H](O)c1ccccc1", "note": "[lobeline]", "values": [{"measurement": "visual responses originating in the SuSC", "setting": "nAChR, SuSC", "result": "reduced"}]}
{"molecule": "CN1CCC[C@H]1c1cccnc1", "note": "[nicotine]", "values": [{"measurement": "binding to α4β2* nAChR", "setting": "α4β2* nAChR", "result": "binds nicotine and other agonists with high affinity"}]}
{"molecule": "C[C@]12N[C@H](Cc3ccccc31)c1ccccc12", "note": "[MK-801, (5S,10R)-(+)-5-Methyl-10,11-dihydro-5H-dibenzo[a,d]cyclohepten-5,10-imine]", "values": [{"measurement": "effect of MK-801 on ACh-stimulated [^3H]-GABA release", "setting": "[1]; 200 μM, 5 min, n=4", "result": "no effect"}]}
{"molecule": "CN1[C@@H]2CC[C@H]1C[C@@H](OC(=O)c1cc(Cl)cc(Cl)c1)C2", "note": "[MDL-72222, Tropanyl 3,5-dichlorobenzoate]", "values": [{"measurement": "effect of MDL-72222 on ACh-stimulated [^3H]-GABA release", "setting": "[1]; 1 μM, 5 min, n=5", "result": "no effect"}]}
{"molecule": "[125I]c1ccc(C2CC3CCC2N3)cn1", "note": "(stereo not shown) [[^125I]-epibatidine]", "values": [{"measurement": "Bmax, specific [^125I]epibatidine binding", "setting": "nAChRs in SuSC membranes", "result": "100 ± 2", "unit": "fmol/mg"}, {"measurement": "Bmax, [^125I]-epibatidine binding", "setting": "[4]", "result": "56 ± 2", "unit": "fmol/mg"}]}
